Experimental data reported in ChEMBL document CHEMBL3727357, “Compositions and methods for inhibiting g protein signaling” (2010).
Calls of active or inactive are those of the source. No cut-off for these calls is given here.

Tests used:
[1] = target: T1, Guanine nucleotide-binding protein G(I)/G(S)/G(T) subunit beta-1/gamma-2 (Homo sapiens, UniProt P62873+P59768); test: (§1) Inhibition of SIGKAFKILGYPDYD binding to biotinylated Gbeta1gamma2 (unknown origin) incubated for 1 hr by phage ELISA; format: protein-complex assay
Target sequence in this assay (P59768 2-71 partner limits assumed): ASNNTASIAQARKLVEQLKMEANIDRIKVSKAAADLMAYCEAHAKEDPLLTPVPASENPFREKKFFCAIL
Target sequence in this assay (P62873 2-340 limits assumed): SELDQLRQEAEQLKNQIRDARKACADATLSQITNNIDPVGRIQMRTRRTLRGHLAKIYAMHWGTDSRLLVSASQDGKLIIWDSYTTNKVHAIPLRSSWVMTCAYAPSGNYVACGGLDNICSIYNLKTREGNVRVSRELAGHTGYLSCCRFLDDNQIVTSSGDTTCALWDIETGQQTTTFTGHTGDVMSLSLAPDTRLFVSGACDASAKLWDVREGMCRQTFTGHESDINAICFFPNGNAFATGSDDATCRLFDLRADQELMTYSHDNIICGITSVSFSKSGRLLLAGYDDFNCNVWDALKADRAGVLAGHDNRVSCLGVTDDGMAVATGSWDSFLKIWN

[2] = target: T1, Guanine nucleotide-binding protein G(I)/G(S)/G(T) subunit beta-1/gamma-2; test: Inhibition of SIGKAFKILGYPDYD binding to biotinylated Gbeta1gamma2 (unknown origin) at 300 uM incubated for 1 hr by phage ELISA; format: protein-complex assay
Target sequence in this assay (P59768 2-71 partner limits assumed): as the sequence (P59768 2-71 partner limits assumed) above
Target sequence in this assay (P62873 2-340 limits assumed): as the sequence (P62873 2-340 limits assumed) above

[3] = target: Guanine nucleotide-binding protein G(I)/G(S)/G(T) subunit beta-1/gamma-2 (Homo sapiens, UniProt P59768+P62873); test: as §1; format: protein-complex assay
[4] = system: HL-60; test: Binding affinity to Gbetagamma in human HL60 cells assessed as inhibition of fMLP-stimulated GRK2 translocation at 10 uM incubated for 5 mins prior to fMLP stimulation by Western blot analysis; format: cell-based
[5] = target: T1, Guanine nucleotide-binding protein G(I)/G(S)/G(T) subunit beta-1/gamma-2; test: Inhibition of biotinylated Gbeta1gamma2 (unknown origin) binding to PLCbeta3 at 1 uM incubated for 16 hrs; format: protein-complex assay
Target sequence in this assay (P59768 2-71 partner limits assumed): as the sequence (P59768 2-71 partner limits assumed) above
Target sequence in this assay (P62873 2-340 limits assumed): as the sequence (P62873 2-340 limits assumed) above

[6] = system: HL-60; test: Effect on fMLP-stimulated ERK1/2 phosphorylation in human HL60 cells at 10 uM incubated for 5 mins prior to fMLP stimulation by Western blot analysis; format: functional, cell-based
[7] = target: T1, Guanine nucleotide-binding protein G(I)/G(S)/G(T) subunit beta-1/gamma-2; test: Inhibition of biotinylated Gbeta1gamma2 (unknown origin) binding to PLCbeta2 at 1 uM incubated for 16 hrs; format: protein-complex assay
Target sequence in this assay (P59768 2-71 partner limits assumed): as the sequence (P59768 2-71 partner limits assumed) above
Target sequence in this assay (P62873 2-340 limits assumed): as the sequence (P62873 2-340 limits assumed) above

[8] = system: CHO; test: Inhibition of human Gbetagamma-dependent kappa opioid receptor-mediated PLC activation expressed in CHO cells assessed as reduction of U50,488-mediated total inositol phosphate production at 10 uM after 30 mins by scintillation counting analysis in presence of [3H]inositol; format: cell-based
[9] = target: T1, Guanine nucleotide-binding protein G(I)/G(S)/G(T) subunit beta-1/gamma-2; test: Inhibition of biotinylated Gbeta1gamma2 (unknown origin)-mediated PLCbeta3 activation incubated for 16 hrs; format: protein-complex assay
Target sequence in this assay (P59768 2-71 limits assumed): as the sequence (P59768 2-71 partner limits assumed) above
Target sequence in this assay (P62873 2-340 limits assumed): as the sequence (P62873 2-340 limits assumed) above

[10] = species: Mus musculus; test: Inhibition of Gbetagamma-GRK2 interaction in mouse cardiomyocytes assessed as increase in contractility; format: cell-based
[11] = species: Mus musculus; test: Inhibition of Gbetagamma-GRK2 interaction in mouse cardiomyocytes assessed as increase in isoproterenol-induced contractility; format: cell-based
[12] = system: HL-60; test: Binding affinity to Gbetagamma in differentiated human HL60 cells assessed as inhibition of fMLP-stimulated Rac1 activation at 10 uM preincubated for 10 mins followed by fMLP challenge for 90 secs by Western blot analysis; format: cell-based
[13] = system: HL-60; test: Antiinflammatory activity in differentiated human HL60 cells assessed as inhibition of fMLP-stimulated cell migration at 10 uM after 1 hr by Boyden chamber method; format: functional, cell-based

Sequence of Guanine nucleotide-binding protein G(I)/G(S)/G(T) subunit beta-1/gamma-2 (Homo sapiens, UniProt P59768+P62873) (P59768 2-71 partner limits assumed): as the sequence (P59768 2-71 partner limits assumed) above
Sequence of Guanine nucleotide-binding protein G(I)/G(S)/G(T) subunit beta-1/gamma-2 (Homo sapiens, UniProt P59768+P62873) (P62873 2-340 limits assumed): as the sequence (P62873 2-340 limits assumed) above

## O=c1cc2oc3cc(O)c(O)cc3c(-c3ccccc3O)c-2cc1O
[1]
  inhibition: inactive
[2]
  inhibition: inactive

## CC1C2C=CC1C(c1c3ccc(=O)cc-3oc3cc(O)ccc13)C2C(=O)O (stereo unspecified)
[3]
  IC50: 14 µM

## COc1cc2c(c(OC)c1OC)-c1ccc(O)c(=O)cc1C(N)CC2 (stereo unspecified)
[4]
  inhibition: Active
[5]
  inhibition: inactive
[6]
  Activity: inactive
[7]
  inhibition: inactive

## Oc1ccc2c3c1O[C@H]1c4[nH]c5c(c4C[C@@]4(O)[C@@H](C2)N(CC2CC2)CC[C@]314)C[C@@]1(O)[C@H]2Cc3ccc(O)c4c3[C@@]1(CCN2CC1CC1)[C@H]5O4
[8]
  inhibition: inactive

## O=C1c2ccccc2C(=O)c2c(Nc3cc4c5c(ccc6c7ccc8c9c(cc(Nc%10cccc%11c%10C(=O)c%10ccccc%10C%11=O)c(c3c56)c97)-c3ccccc3C8=O)C(=O)c3ccccc3-4)cccc21
[9]
  IC50: Not Active

## O=C(O)c1ccc(-c2c3ccc(=O)cc-3oc3cc(O)ccc23)cc1
[1]
  inhibition: inactive
[2]
  inhibition: inactive

## O=C(O)C1CCCCC1c1c2ccc(=O)cc-2oc2cc(O)ccc12 (stereo unspecified)
[10]
  inhibition: inactive
[11]
  inhibition: inactive
[12]
  inhibition: inactive
[13]
  inhibition: inactive

## O=C(O)c1cccc2cccc(-c3c4ccc(=O)c(O)c-4oc4c(O)c(O)ccc34)c12
[3]
  IC50: 0.13 µM
